Assay results from patent US20200360352A1, “USE OF RIFAMYCIN-NITROIMIDAZOLE COUPLING MOLECULE” (priority 2019, published 2020).
≈ marks a conversion by molar mass, not a printed value. Where two headings read alike, the source gives them in different places.

Assays:
Mycobacterium avium [1] = test: MIC, micro broth dilution with resazurin readout; assay type: cell-based; details: read-out: Minimum Inhibitory Concentration (MIC)
Mycobacterium abscessus [2] = test: MIC, micro broth dilution with resazurin readout; assay type: cell-based; details: Mycobacteroides abscessus, read-out: Minimum Inhibitory Concentration (MIC)
Mycobacterium kansasii [3] = test: MIC, micro broth dilution with resazurin readout; assay type: cell-based; details: read-out: Minimum Inhibitory Concentration (MIC)
[4] = test system: Mycobacterium intracellulare; test: MIC, micro broth dilution with resazurin readout; assay type: cell-based; details: MH Culture Medium, read-out: Minimum Inhibitory Concentration (MIC)
[5] = test system: Mycobacterium massiliense; test: MIC, micro broth dilution with resazurin readout; assay type: cell-based; details: Mycobacteroides abscessus, MH Culture Medium, read-out: Minimum Inhibitory Concentration (MIC)
Mycobacterium fortuitum = test: MIC, micro broth dilution with resazurin readout; assay type: cell-based; details: Mycolicibacterium fortuitum, MH Culture Medium, read-out: Minimum Inhibitory Concentration (MIC)
Mycodacterium chelonei = test: MIC, micro broth dilution with resazurin readout; assay type: cell-based; details: MH Culture Medium; Chelonei (standard strain); read-out: Minimum Inhibitory Concentration (MIC)
Mycobacterium avium [6] = test: MBC, plating of MIC wells and CFU count; assay type: cell-based; details: read-out: Minimum Bactericidal Concentration (MBC)
Mycobacterium abscessus [7] = test: MBC, plating of MIC wells and CFU count; assay type: cell-based; details: Mycobacteroides abscessus, read-out: Minimum Bactericidal Concentration (MBC)
Mycobacterium kansasii [8] = test: MBC, plating of MIC wells and CFU count; assay type: cell-based; details: read-out: Minimum Bactericidal Concentration (MBC)
NTM = test: In-vitro activity against NTM, overall conclusion; assay type: cell-based, nontuberculous mycobacteria; details: overall conclusion from Tables 1-3
Procedure: In this embodiment, an inhibitory test is performed on pathogenic bacteria, i.e. Mycobacterium avium, Mycobacterium abscessus and Mycobacterium kansasii belonging to the nontuberculous mycobacteria using the rifamycin-nitroimidazole coupling molecule of the present invention and positive controls, and then Minimum Inhibitory Concentration (MIC) and Minimum Bactericidal Concentration (MBC) are obtained. Clarithromycin, moxifloxacin, amikacin, rifampicin, rifabutin, ciprofloxacin and metronidazole are used as positive controls. The test strains are provided by KnowBio company, and the Chinese clinically isolated strains are derived from Shanghai Pulmonary Hospital.
The inhibitory test of this embodiment is performed by the micro broth dilution method using two different culture mediums: (1) MH (Mueller-Hinton) micro broth dilution method: using MH culture medium (or culture solution), wherein the concentration of calcium and magnesium ions in MH broth (cation-adjusted) is consistent with that in the Guideline of the Clinical and Laboratory Standards Institute (CLSI; M7-A7); and (2) 7H9 micro broth dilution method: using 7H9 culture medium (or culture solution, provided by Sigma-Aldrich).

[9] = 7H9 Broth, Mycobacterium avium Rough
[10] = 7H9 Broth, Mycobacterium avium Smooth
[11] = MH Broth, Mycobacterium avium Rough
[12] = MH Broth, Mycobacterium avium Smooth

Structure (SMILES): CO[C@H]1/C=C/O[C@@]2(C)Oc3c(C)c(O)c4c(c3C2=O)C2=NC3(CCN(CCn5c([N+](=O)[O-])cnc5C)CC3)NC2=C(NC(=O)/C(C)=C\C=C\[C@H](C)[C@H](O)[C@@H](C)[C@@H](O)[C@@H](C)[C@H](OC(C)=O)[C@@H]1C)C4=O [Compound I]
- MIC (Mycobacterium avium [1]; [9]): 4 mg/L (≈ 4.24 µM)
- MIC (Mycobacterium avium [1]; [10]): 4 mg/L (≈ 4.24 µM)
- MIC (Mycobacterium avium [1]; [11]): 4 mg/L (≈ 4.24 µM)
- MIC (Mycobacterium avium [1]; [12]): 4 mg/L (≈ 4.24 µM)
- MIC (Mycobacterium avium [1]; MH Culture Medium, Avium (standard strain)): 0.0625 mg/L (≈ 0.0662 µM)
- MIC (Mycobacterium avium [1]; MH Culture Medium, clinically isolated strain Avium (S31)): 0.0625 mg/L (≈ 0.0662 µM)
- MIC (Mycobacterium avium [1]; MH Culture Medium, clinically isolated strain Avium (S123)): 0.0625 mg/L (≈ 0.0662 µM)
- MIC (Mycobacterium avium [1]; MH Culture Medium, clinically isolated strain Avium (S559)): 0.0625 mg/L (≈ 0.0662 µM)
- MIC (Mycobacterium avium [1]; MH Culture Medium, clinically isolated strain Avium (S568)): 0.25 mg/L (≈ 0.265 µM)
- MIC (Mycobacterium avium [1]; MH Culture Medium, clinically isolated strain Avium (S577)): 0.0625 mg/L (≈ 0.0662 µM)
- MIC (Mycobacterium avium [1]; MH Culture Medium, clinically isolated strain Avium (S597)): 0.125 mg/L (≈ 0.132 µM)
- MIC (Mycobacterium avium [1]; MH Culture Medium, clinically isolated strain Avium (S602)): 0.0625 mg/L (≈ 0.0662 µM)
- MIC (Mycobacterium abscessus [2]; 7H9 Broth): 1 mg/L (≈ 1.06 µM)
- MIC (Mycobacterium abscessus [2]; MH Broth): 1 mg/L (≈ 1.06 µM)
- MIC (Mycobacterium kansasii [3]; 7H9 Broth): 2 mg/L (≈ 2.12 µM)
- MIC (Mycobacterium kansasii [3]; MH Broth): 2 mg/L (≈ 2.12 µM)
- MIC (Mycobacterium kansasii [3]; MH Culture Medium, Kansasii (standard strain)): 0.0625 mg/L (≈ 0.0662 µM)
- MIC (Mycobacterium kansasii [3]; MH Culture Medium, clinically isolated strain Kansasii (S9)): 0.0625 mg/L (≈ 0.0662 µM)
- MIC (Mycobacterium kansasii [3]; MH Culture Medium, clinically isolated strain Kansasii (S199)): 0.0625 mg/L (≈ 0.0662 µM)
- MIC (Mycobacterium kansasii [3]; MH Culture Medium, clinically isolated strain Kansasii (S520)): 0.0625 mg/L (≈ 0.0662 µM)
- MIC (Mycobacterium kansasii [3]; MH Culture Medium, clinically isolated strain Kansasii (S609)): 0.0625 mg/L (≈ 0.0662 µM)
- MIC ([4]; Intracellulare (standard strain)): 0.0625 mg/L (≈ 0.0662 µM)
- MIC ([4]; clinically isolated strain Intracellulare (S90)): 0.25 mg/L (≈ 0.265 µM)
- MIC ([4]; clinically isolated strain Intracellulare (S261)): 0.25 mg/L (≈ 0.265 µM)
- MIC ([4]; clinically isolated strain Intracellulare (S269)): 0.125 mg/L (≈ 0.132 µM)
- MIC ([4]; clinically isolated strain Intracellulare (S290)): 0.25 mg/L (≈ 0.265 µM)
- MIC ([4]; clinically isolated strain Intracellulare (S291)): 0.125 mg/L (≈ 0.132 µM)
- MIC ([4]; clinically isolated strain Intracellulare (S298)): 0.25 mg/L (≈ 0.265 µM)
- MIC ([4]; clinically isolated strain Intracellulare (S442)): 0.0625 mg/L (≈ 0.0662 µM)
- MIC ([4]; clinically isolated strain Intracellulare (S541)): 0.125 mg/L (≈ 0.132 µM)
- MIC ([4]; clinically isolated strain Intracellulare (S623)): 0.25 mg/L (≈ 0.265 µM)
- MIC ([4]; clinically isolated strain Intracellulare (ZPS)): 0.0625 mg/L (≈ 0.0662 µM)
- MIC ([5]; clinically isolated strain Massiliense (D10)): 64 mg/L (≈ 67.8 µM)
- MIC ([5]; clinically isolated strain Massiliense (D14)): 64 mg/L (≈ 67.8 µM)
- MIC ([5]; clinically isolated strain Massiliense (D18)): 64 mg/L (≈ 67.8 µM)
- MIC (Mycobacterium fortuitum; Fortuitum (standard strain)): 16 mg/L (≈ 16.9 µM)
- MIC (Mycobacterium fortuitum; clinically isolated strain Fortuitum (S103)): > 64 mg/L
- MIC (Mycobacterium fortuitum; clinically isolated strain Fortuitum (S111)): 4 mg/L (≈ 4.24 µM)
- MIC (Mycodacterium chelonei): 32 mg/L (≈ 33.9 µM)
- MBC (Mycobacterium avium [6]; [9]): 4 mg/L (≈ 4.24 µM)
- MBC (Mycobacterium avium [6]; [10]): 16 mg/L (≈ 16.9 µM)
- MBC (Mycobacterium avium [6]; [11]): 4 mg/L (≈ 4.24 µM)
- MBC (Mycobacterium avium [6]; [12]): 16 mg/L (≈ 16.9 µM)
- MBC (Mycobacterium abscessus [7]; 7H9 Broth): 1 mg/L (≈ 1.06 µM)
- MBC (Mycobacterium abscessus [7]; MH Broth): 16 mg/L (≈ 16.9 µM)
- MBC (Mycobacterium kansasii [8]; 7H9 Broth): 8 mg/L (≈ 8.47 µM)
- MBC (Mycobacterium kansasii [8]; MH Broth): 2 mg/L (≈ 2.12 µM)
- in-vitro activity against NTM (NTM): effective and broad in-vitro activity against NTM
